The test deals with R223X stop codon in the mutated luciferase gene, ADXC8 luciferase reporter cell line. Nature of the test: cells. The conditions noted are these: 24 h, ADXC8 cells, 24 hours; for Emax: read-out: Fold Over Control, maximum fold response relative to 200 μM G418; for EC (100% of 200 uM G418 response): read-out: pC100%, negative logarithm of the concentration giving the same response as 200 μM G418. In kind it is cell-based. The protocol:
The read-through activity of compounds was assessed using the ADXC8 luciferase reporter cell line (generated as described in McElroy et al. PLoS Biology (2013), 11, e1001593). […] The amount of luciferase is measured by adding a lysis buffer containing luciferin substrate and detecting luminescence using the following protocol:
ADXC8 cells in assay media (DMEM+10% FBS) were seeded into 96-well tissue culture treated white plates (Greiner) to a density of 13,000 cells per well and incubated for 24 hours at 37° C. in an atmosphere of 5% CO2. […] Plates were incubated for a further 24 hours at 37° C. in an atmosphere of 5% CO2. Cells treated with 200 μM G418 (with 1% DMSO) were used as a positive control.
Cell viability and firefly luciferase activity were measured in the same assay wells. CellTiter-Fluor™ reagent was prepared as per manufacturer's instructions (Promega E7120) and 20 μl of 5× CellTiter-Fluor™ reagent was added to all wells, briefly mixed by orbital shaking (300-500 rpm for −30 seconds) and the plates incubated for 30-45 minutes at 37° C. in an atmosphere of 5% C02. Cell viability was measured by monitoring fluorescence on a CLARIOstar® plate reader (BMG Labtech). Cells containing 1% DMSO were used as a positive control and cells with 400 μM Doxorubicin were used as negative control to define 100 and 0% respectively. ONE-Glo™ luciferase assay buffer (Promega E7120) was prepared according to manufacturer's instructions and 100 μl of luciferase reagent was added to each well and the plate incubated at RT for 3 mins before measuring the luminescence on the CLARIOstar® plate reader (BMG Labtech). Cells treated with 200 μM G418 (with 1% DMSO) were used as a positive control and arbitrarily assigned a value of 100%. Cells treated with 1% DMSO were used as the negative control to define 0% response.
Concentration effect curves were analysed using non-linear regression using the CDD Vault from Collaborative Drug Discovery (Burlingame, CA). […] The bottom and top of the curves were constrained to 0 and the maximum measured response respectively. From the fitted curves, the software derived C100% values (the concentration giving the same response as 200 μM G418) for each compound. The negative logarithm of C100% is reported as pC100% (Table 1). In addition to pC100% values, the maximum fold response relative to 200 μM G418 (Fold over Control) was also captured (Table 1). A pC100% categorisation of ‘-’ in Table 1 represents examples in which a pC100% response was not reached when assayed at a concentration of 100 μM. A pC100% categorisation of ‘*’ in Table 1 represents examples in which a pC100% response was not reached when assayed at a concentration of 30 μM.

For `Cc1cc(C)c2c(N)nc(NC3CC4(CCNCC4)C3)nc2n1` [Example 200], the Emax lay in the range of 0 to 100% and the EC (100% of 200 uM G418 response) is more than 31.6 µM. On to `Cc1cc(C)c2c(NCC(F)(F)F)nc(N[C@@H]3CCN(C)C3)nc2n1` [Example 389], for which the Emax was 100 to 3000% and the EC (100% of 200 uM G418 response) was 10 to 100 µM. The matching figures for `CNc1nc(N[C@H]2CN(C)C[C@H]2OC)nc2nc(C)cc(C)c12` [Example 369]: 100 to 3000% and 1 to 10 µM.

As to `Cc1cc(C)c2c(N)nc(NC3CC4CC[C@@H](C3)N4C(=O)OC(C)(C)C)nc2n1` (stereo partly drawn) [Example 137], the Emax lay within 100 to 3000% and the EC (100% of 200 uM G418 response) lay within 10 to 100 µM.

For `CNc1nc(N[C@H]2CCCN(C)C2)nc2nc(C)cc(C)c12` [Example 384], the Emax fell in the range of 100 to 3000% and the EC (100% of 200 uM G418 response) was in the range of 1 to 10 µM.

For the molecule `COc1ccc(CN2CCC(Nc3nc(N)c4c(C)cc(C)nc4n3)CC2)cc1` [Example 478], the Emax was in the range of 100 to 3000% and the EC (100% of 200 uM G418 response) is 0.1 to 1 µM. `Cc1cc(C)c2c(N)nc(NC3CCN(Cc4ccc(C#N)c(F)c4)CC3)nc2n1` [Example 570]: the Emax fell in the range of 100 to 3000% and the EC (100% of 200 uM G418 response) is 0.1 to 1 µM. Turning to `CCN1C[C@H](Nc2nc(NC)c3c(C)cc(C)nc3n2)[C@@H](O)C1` [Example 626], the Emax was 100 to 3000% and the EC (100% of 200 uM G418 response) was in the range of 1 to 10 µM. Regarding `COCc1ccc(-c2ccc3c(N)nc(NC4CCN(C)CC4)nc3n2)cc1` [Example 78], the Emax lay in the range of 100 to 3000% and the EC (100% of 200 uM G418 response) was 1 to 10 µM. Turning to `COc1cnc2nc(NC3CCN(C)CC3)nc(N)c2c1` [Example 241, 6-methoxy-N^2-(1-methylpiperidin-4-yl)pyrido[2,3-d]pyrimidine-2,4-diamine], the Emax fell in the range of 0 to 100% and the EC (100% of 200 uM G418 response) is more than 31.6 µM. On to `CNc1nc(N[C@H]2CN(C)C[C@@H]2OC(=O)C(C)(C)C)nc2nc3c(c(C)c12)CCC3` [Example 681], for which the Emax lay in the range of 100 to 3000% and the EC (100% of 200 uM G418 response) fell in the range of 0.1 to 1 µM.

Take `CNc1nc(N[C@H]2CNCC[C@@H]2O)nc2nc(C)cc(C)c12` [Example 608]: the EC (100% of 200 uM G418 response) lay in the range of 1 to 10 µM. As to `Cc1cc(C)c2c(N)nc(NCCCN3CCC3)nc2n1` [Example 191], the Emax fell in the range of 100 to 3000% and the EC (100% of 200 uM G418 response) lay within 10 to 100 µM. For `Cc1cc(C)c2c(N)cc(NC3CCN(C)CC3)nc2n1` [Example 291] the same measures were 100 to 3000% and 1 to 10 µM. The matching figures for `CNc1nc(N[C@@H]2CNC[C@H]2O)nc2nc3c(c(C)c12)CCC3` [Example 546]: 100 to 3000% and 1 to 10 µM. Turning to `CCC(=O)O[C@H]1CN(C)C[C@@H]1Nc1nc(NC)c2c(C)c3c(nc2n1)CCC3` [Example 682], the Emax is 100 to 3000% and the EC (100% of 200 uM G418 response) was in the range of 0.1 to 1 µM. Regarding `Cc1nc2nc(NC3CCN(Cc4ccc(C#N)cc4)CC3)nc(N)c2c2c1CCC2` [Example 554], the Emax was in the range of 100 to 3000% and the EC (100% of 200 uM G418 response) fell in the range of 0.1 to 1 µM. The matching figures for `Cc1nc2nc(NC3CCN(Cc4ccccc4O)CC3)nc(N)c2c2c1CCC2` [Example 537]: 100 to 3000% and 0.1 to 1 µM. In the case of `CNc1nc(N[C@H]2CCCNCC2)nc2nc(C)cc(C)c12` [Example 387], the Emax lay in the range of 100 to 3000% and the EC (100% of 200 uM G418 response) fell in the range of 1 to 10 µM. Consider `CCNc1nc(N[C@H]2CN(C)C[C@@H]2O)nc2nc(C)cc(C)c12` [Example 391], for which the Emax is 100 to 3000% and the EC (100% of 200 uM G418 response) lay in the range of 0.1 to 1 µM. As for `Cc1cc(-c2ccccc2)nc2nc(NC3CCN(C)CC3)nc(N)c12` [Example 16, 5-methyl-N^2-(1-methylpiperidin-4-yl)-7-phenylpyrido[2,3-d]pyrimidine-2,4-diamine], the EC (100% of 200 uM G418 response) lay within 0.1 to 1 µM.

Consider `Cc1cc(C)c2c(N)nc(NC3CCN(Cc4ccncc4C(F)F)CC3)nc2n1` [Example 533], for which the Emax was in the range of 100 to 3000% and the EC (100% of 200 uM G418 response) was 10 to 100 µM.

Consider `CNc1nc(N[C@@H]2CCCN(C)C2)nc2nc(C)cc(C)c12` [Example 385], for which the EC (100% of 200 uM G418 response) was 0.1 to 1 µM. Regarding `Cc1cc(C)c2c(NC(C)C)nc(N[C@@H]3CCNC3)nc2n1` [Example 323], the Emax fell in the range of 100 to 3000% and the EC (100% of 200 uM G418 response) was 1 to 10 µM. The matching figures for `Cc1cc(C)c2c(N)nc(NC3CCN(Cc4cccc(C(F)(F)F)c4)CC3)nc2n1` [Example 492]: 100 to 3000% and 10 to 100 µM. For `Cc1c2c(nc3nc(NC4CCN(Cc5ccn[nH]5)CC4)nc(N)c13)CCC2` [Example 662] the same measures were 100 to 3000% and 1 to 10 µM. The matching figures for `CNc1nc(N[C@H]2CNC[C@@H]2O)nc2nc3c(c(C)c12)CCC3` [Example 341]: 100 to 3000% and 0.01 to 0.1 µM. Take `Cc1cc(C)c2c(N)nc(NCC3CCCN(C)C3)nc2n1` (stereo not drawn) [Example 174]: the Emax lay within 100 to 3000% and the EC (100% of 200 uM G418 response) fell in the range of 10 to 100 µM. Regarding `Cc1cc(C)c2c(N)nc(NC3CCN(Cc4cccc(CO)c4)CC3)nc2n1` [Example 482], the Emax fell in the range of 100 to 3000% and the EC (100% of 200 uM G418 response) fell in the range of 10 to 100 µM. Consider `COc1cccc(-c2ccc3c(N)nc(NC4CCN(C)CC4)nc3n2)c1` [Example 100], for which the Emax fell in the range of 100 to 3000% and the EC (100% of 200 uM G418 response) lay in the range of 1 to 10 µM. On to `CN1CCC(Nc2nc(N)c3cc(C(F)(F)F)cnc3n2)CC1` [Example 19, N^2-(1-methylpiperidin-4-yl)-6-(trifluoromethyl)pyrido[2,3-d]pyrimidine-2,4-diamine], for which the Emax lay in the range of 0 to 100% and the EC (100% of 200 uM G418 response) is more than 100 µM. As for `Cc1cc(C)c2c(N)nc(N[C@@H]3CN[C@@H](C)C3)nc2n1` [Example 349], the Emax is 100 to 3000% and the EC (100% of 200 uM G418 response) lay in the range of 10 to 100 µM. For the molecule `Cc1cc(C2CCC2)nc2nc(NC3CCN(C)CC3)nc(N)c12` [Example 521, 7-cyclobutyl-5-methyl-N^2-(1-methylpiperidin-4-yl)pyrido[2,3-d]pyrimidine-2,4-diamine], the EC (100% of 200 uM G418 response) is 1 to 10 µM. Consider `CNc1nc(N[C@@H]2CN[C@@H](C)C2)nc2nc(C)cc(C)c12` [Example 374], for which the Emax lay in the range of 100 to 3000% and the EC (100% of 200 uM G418 response) lay in the range of 10 to 100 µM. For the molecule `Cc1cc(C)c2c(N)nc(NC3CCN(Cc4c(C)cccc4C)CC3)nc2n1` [Example 468], the Emax lay in the range of 100 to 3000% and the EC (100% of 200 uM G418 response) was in the range of 1 to 10 µM.

In the case of `Cc1cc(C)c2c(N)nc(N[C@H]3CCN(Cc4ccc(C#N)cc4)C[C@@H]3F)nc2n1` [Example 574], the Emax is 100 to 3000% and the EC (100% of 200 uM G418 response) lay in the range of 10 to 100 µM.

With `Cc1cc(C)c2c(N)nc(NCCN3CC(C(F)(F)F)C3)nc2n1` [Example 166], the Emax lay in the range of 100 to 3000% and the EC (100% of 200 uM G418 response) lay within 10 to 100 µM. The matching figures for `CNc1nc(N[C@@H]2CCN(C)C2)nc2nc(C)cc(C)c12` [Example 327]: 100 to 3000% and 1 to 10 µM. For `Cc1ccc(-c2ccc3c(N)nc(NC4CCN(C)CC4)nc3n2)cc1` [Example 101], the EC (100% of 200 uM G418 response) is 1 to 10 µM. Take `Cc1cc(C)c2c(N)nc(NC3CCN(Cc4ccc(S(C)(=O)=O)cc4)CC3)nc2n1` [Example 497]: the Emax was 100 to 3000% and the EC (100% of 200 uM G418 response) was 10 to 100 µM. With `CNCCCNc1nc(N)c2c(C)cc(C)nc2n1` [Example 280], the EC (100% of 200 uM G418 response) lay within 1 to 10 µM. On to `Cc1cc(C)c2c(N)nc(N[C@@H]3CCN(Cc4ccc(C#N)cc4)C[C@@H]3O)nc2n1` [Example 562], for which the Emax lay in the range of 100 to 3000% and the EC (100% of 200 uM G418 response) lay in the range of 1 to 10 µM.

`Cc1cc(C)c2c(N)nc(NC3CCN(Cc4ccc(F)cc4)CC3)nc2n1` [Example 457]: the Emax lay within 100 to 3000% and the EC (100% of 200 uM G418 response) lay within 0.1 to 1 µM. With `Cc1cc(C)c2c(NC3CCC3)nc(NC3CCN(C)CC3)nc2n1` [Example 321], the Emax lay within 0 to 100% and the EC (100% of 200 uM G418 response) was more than 31.6 µM. `Cc1cc(C)c2c(N)nc(NC3CCN(Cc4ccc(C(F)(F)F)cc4)CC3)nc2n1` [Example 456]: the Emax was in the range of 100 to 3000% and the EC (100% of 200 uM G418 response) was in the range of 1 to 10 µM.

These data come from patent US20260234144A1 (TAY THERAPEUTICS LIMITED, priority 2023, published 2026).
